Test results reported in the supplement of paper PMC10307832.

How the values were obtained:
Assay in all cases: relative viability (nuclei count vs DMSO), 5 days (fraction); higher = more cells survive
Decitabine + Crizotinib = compound: Nc1ncn([C@H]2C[C@H](O)[C@@H](CO)O2)c(=O)n1 [Decitabine] + C[C@@H](Oc1cc(-c2cnn(C3CCNCC3)c2)cnc1N)c1c(Cl)ccc(F)c1Cl [Crizotinib] (partner 1 µM)
Procedure, shortened: (§1)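 Values are medians from duplicate plates. Each reflects relative viability, defined as the nuclei count of treated wells over that of vehicle wells. Lung cancer cell lines in 1536-well plates were pin-tool dosed one day after seeding with one drug alone or with a fixed anchor-drug dose plus five library-drug doses (not always all listed) in √10 steps, then fixed, stained and imaged at 4× after 5 days.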

Cediranib + Decitabine = compound: COc1cc2c(Oc3ccc4[nH]c(C)cc4c3F)ncnc2cc1OCCCN1CCCC1 [Cediranib] + Nc1ncn([C@H]2C[C@H](O)[C@@H](CO)O2)c(=O)n1 [Decitabine] (partner 2 µM)
Procedure, shortened: as §1

Decitabine + OSI-027 = compound: Nc1ncn([C@H]2C[C@H](O)[C@@H](CO)O2)c(=O)n1 [Decitabine] + COc1cccc2cc(-c3nc([C@H]4CC[C@H](C(=O)O)CC4)n4ncnc(N)c34)[nH]c12 [OSI-027] (partner 0.5 µM)
Procedure, shortened: as §1

[1] = compound: O=C(C[C@H]1NCCC[C@@H]1O)Cn1cnc2cc(Br)c(Cl)cc2c1=O (racemic) [Halofuginone] + N=C(N)NC(=N)NCCc1ccccc1 [Phenformin] (partner 250 µM)
Procedure, shortened: as §1

Cell Line | relative viability (Decitabine + Crizotinib; first compound 0.04 µM) | relative viability (Decitabine + Crizotinib; first compound 0.1265 µM) | relative viability (Decitabine + Crizotinib; first compound 0.4 µM) | relative viability (Decitabine + Crizotinib; first compound 1.265 µM) | relative viability (Decitabine + Crizotinib; first compound 4 µM) | relative viability (Cediranib + Decitabine; first compound 0.04 µM) | relative viability (Cediranib + Decitabine; first compound 0.1265 µM) | relative viability (Cediranib + Decitabine; first compound 0.4 µM) | relative viability (Cediranib + Decitabine; first compound 1.265 µM) | relative viability (Cediranib + Decitabine; first compound 4 µM) | relative viability (Decitabine + OSI-027; first compound 0.04 µM) | relative viability (Decitabine + OSI-027; first compound 0.1265 µM) | relative viability (Decitabine + OSI-027; first compound 0.4 µM) | relative viability (Decitabine + OSI-027; first compound 1.265 µM) | relative viability (Decitabine + OSI-027; first compound 4 µM) | relative viability ([1]; first compound 0.001 µM) | relative viability ([1]; first compound 0.003162 µM) | relative viability ([1]; first compound 0.01 µM) | relative viability ([1]; first compound 0.03162 µM) | relative viability ([1]; first compound 0.1 µM)
NCI-H23 | 0.338 | 0.373 | 0.21 | 0.175 | 0.163 | 0.327 | 0.355 | 0.31 | 0.312 | 0.339 | 0.48 | 0.498 | 0.255 | 0.231 | 0.245 | 0.774 | 0.762 | 0.757 | 0.806 | 0.669
NCI-H1975 | 0.491 | 0.355 | 0.312 | 0.305 | 0.28 | 0.638 | 0.432 | 0.403 | 0.351 | 0.42 | 0.516 | 0.378 | 0.32 | 0.277 | 0.256 | 0.403 | 0.397 | 0.422 | 0.356 | 0.365
COR-L 105 | 0.596 | 0.633 | 0.573 | 0.356 | 0.319 | 0.65 | 0.676 | 0.629 | 0.601 | 0.729 | 0.425 | 0.581 | 0.65 | 0.526 | 0.585 | 0.492 | 0.467 | 0.488 | 0.516 | 0.381
LK-2 | – | 0.219 | 0.262 | 0.265 | 0.219 | 0.287 | 0.231 | 0.396 | 0.269 | 0.273 | 0.188 | 0.2 | 0.191 | 0.252 | 0.212 | 0.627 | 0.598 | 0.404 | 0.372 | 0.221
EKVX | 0.828 | 0.73 | 0.503 | 0.396 | 0.364 | 0.332 | 0.342 | 0.341 | – | 0.392 | 0.494 | 0.516 | 0.461 | 0.303 | 0.297 | 0.236 | 0.241 | 0.232 | 0.226 | 0.199
NCI-H2009 | 0.846 | 0.639 | 0.464 | 0.281 | 0.25 | 0.4 | 0.366 | 0.369 | 0.333 | 0.417 | 0.518 | 0.437 | 0.336 | 0.296 | 0.25 | 0.485 | 0.52 | 0.473 | 0.449 | 0.271
NCI-H838 | 0.389 | 0.314 | 0.228 | 0.248 | 0.2 | 0.497 | 0.376 | 0.432 | 0.383 | 0.506 | 0.359 | 0.324 | 0.279 | 0.273 | 0.29 | 0.668 | 0.713 | 0.525 | 0.347 | 0.199
NCI-H2085 | 0.578 | 0.432 | 0.519 | 0.399 | 0.388 | 0.55 | 0.515 | 0.537 | 0.526 | 0.541 | 0.47 | 0.587 | 0.472 | 0.376 | 0.365 | 0.685 | 0.703 | 0.686 | 0.705 | 0.574
